What was measured:
[1] = cynomolgus monkey, in vivo
Description: (§1) Six adult cynomolgus monkeys (three males and three females) were used for this study. Males weighed from 5.3 kg to 5.5 kg at the start of the live phase. Females weighed from 3.8 kg to 4.9 kg at the start of the live phase. Each animal was uniquely identified with a number tattooed on the inner thigh.
(§2) The animals were housed individually in stainless steel cages. Rooms were thermostatically set to maintain a temperature of 72° F. and maintain an actual temperature within 8° F. from that set point. The environmental control system is designed to maintain a relative humidity of 20% and a maximum of 80%. Light was on a 12 hour cycle, with lights on between 0600 and 1800. […] On test days, the animals were given primate chow only after the completion of the inhalation exposures. Water was available ad libitum except during exposure times.
(§3) Prior to beginning the live phase of the study, the monkeys were conditioned, over an approximately 3 month period, to be caught, handled, and placed in a restraint chair using the pole-and-collar method. Foods like peanuts, marshmallows, and a variety of dried and fresh fruits were used as training rewards. The time that the monkeys were left in the chair was increased gradually up to 8 hours. By the end of the training period, all the monkeys could be caught quickly, placed into the restraint chair easily, and would allow limb manipulation, including having blood drawn, while in the chair.
(§4) Each monkey was studied once per week for 5 weeks. Target concentrations of raloxifene activity were 0, 3, 10, 0, and 30 mg/m^3 for Weeks 1 through 5 respectively. The activity was determined by correcting the amount of raloxifene collected by the potency of the lot used. Each exposure was for 8 hours, divided into 4 hour segments with 15 minutes in between. During the 15 minute period between the 4 hour exposures, the monkeys were offered juice to drink and apple pieces to eat. The conditioning period described above had used this method to keep the animals from becoming agitated due to hunger or thirst. A 15 minute break in the exposures was not expected to affect the blood levels of raloxifene.
(§5) The monkeys were placed into the restraint prior to each exposure. Two sheets of latex (0.030 in. thick) were placed around the animal's necks to form a seal. A 7-L head dome was placed over the animal's heads as described in J. Appl. […] Airflow of 15 L/min was maintained through the head dome via a calibrated transvector on the exhaust port. The raloxifene was aerosolized using a Wright Dust Feed II. […] The aerosol then entered the head-dome for the monkey to breath.
(§6) Each day, before the monkeys were exposed, the exposure system was set up and a gravimetric sample was taken to determine the raloxifene concentration. The monkey was then placed in the chair and the aerosol was generated using the same generator settings. After the exposure to the monkey, it was removed from the chair, the system re-assembled, and another gravimetric sample taken. The concentrations derived from the 2 gravimetric samples were averaged to obtain the raloxifene concentration for that exposure. Gravimetric concentrations were determined by collecting the aerosol directly from the head-dome onto a 25 mm Gelman type A/E glass fiber filter.

[2] = cynomolgus monkey, in vivo; remark: listed apart in the source
[3] = Pharmacokinetics of inhaled (pulmonary/nasal) aerosolized raloxifene in cynomolgus monkeys (Working Example 1)
Description: as §1, §2, §3, §4, §5, §6

Question: Which results are given for `O=C(c1ccc(OCCN2CCCCC2)cc1)c1c(-c2ccc(O)cc2)sc2cc(O)ccc12` [raloxifene]?
Answer: blood levels of raloxifene (level and duration) [1]: relatively higher blood levels of raloxifene which lasted for several hours; initial levels of unmetabolized raloxifene absorbed into the blood [1]: higher, relative to oral delivery; breathing frequency [2]: no significant changes; tidal volume [2]: no significant changes; Cmax (Mean Ralox.) ([3]; 8 h inhalation, exposure conc. 3.3 mg Ralox./m^3 of air, plasma): 7 ng/mL; Cmax (Mean Ralox.) ([3]; 8 h inhalation, exposure conc. 9.7 mg Ralox./m^3 of air, plasma): 17 ng/mL; Cmax (Mean Ralox.) ([3]; 8 h inhalation, exposure conc. 26.9 mg Ralox./m^3 of air, plasma): 47 ng/mL; AUC ratio of raloxifene/total raloxifene ([3]; inhalation, 10 mg/m^3 dose group): 0.56; AUC ratio of raloxifene/total raloxifene ([3]; inhalation, 30 mg/m^3 dose group): 0.82; sex differences in raloxifene, total raloxifene, Cmax, or AUC values ([3]; inhalation, males and females): No appreciable sex differences; blood levels by pulmonary/nasal delivery relative to oral administration ([3]; oral administration at an equivalent dose as comparison): considerably higher than those obtained following oral administration; bioavailability ([3]; pulmonary/nasal delivery): unexpected high level of bioavailability; Cmax (Mean Tot. Ralox.) ([3]; total raloxifene, 8 h inhalation, exposure conc. 26.9 mg Ralox./m^3 of air, plasma): 84 ng/mL
